The results in this text go back to patent publication US20230382923A1, “FUSED TETRACYCLIC QUINAZOLINE DERIVATIVES AS INHIBITORS OF ERBB2” (EnLiven Therapeutics, Inc., priority 2021, published 2023).

Some results are limits rather than exact numbers.

Assay [1] concerns the target phosphorylated EGFR (pEGFR) (Homo sapiens (Human), UniProt P00533). Kind of assay: Detection of phosphorylated EGFR (pEGFR) by AlphaLISA in A431 cells. The format is cell-based. To be noted: A431 cells (10% FBS), 4 hours incubation, EGF 30 ng/mL for 10 minutes. The method, then: […] were performed to measure phosphorylated EGFR levels using A431 cells (10% FBS). A431 (1.0*10^4cells/40 μl/well) cells were seeded in 384 well. Compounds were dissolved in DMSO, serially diluted in DMSO and then were added, mixed, and incubated for 4 hours at 37° C., […]. Following the 4-hours incubation, cells were stimulated for 10 minutes with EGF (Invitrogen, cat #PHG0311) at a final concentration of 30 ng/mL in the incubator. The media was aspirated and cells were lysed in 10 μL lysis buffer with protease and phosphatase inhibitors (PerkinElmer, cat #ALSU-PEGFR-A50K). The plates were placed on a shaker for 5 minutes and then incubated for 30 min at 4° C. for complete lysis. The lysate was transferred to an Optiplate (Perkin Elmer, cat #6007290).
Acceptor mix (PerkinElmer, cat #ALSU-PEGFR-A50K) was prepared just before use and 5 μL was dispensed to all the wells, followed by a 1.5-2 h incubation at room temperature in dark. The donor mix (PerkinElmer, cat #ALSU-PEGFR-A50K) was prepared under low light conditions prior to use and 5 μl of donor mix was added to all the wells under subdued lighting or green filters. The plates were placed on a shaker for 5 min, sealed, and incubated overnight at room temperature in dark. Plates were read on the Envision (PerkinElmer) using standard AlphaLISA settings.
The percentage of inhibition on EGFR phosphorylation was calculated following equation: % Inhibition=100×(LumHC−LumSample)/(LumHC−LumLC). The low and high controls (LC/HC) are generated from lysate from wells with cells treated with DMSO or […] Staurosporine (BioAustralis, cat #BIA-S1086), […]. IC50 values were calculated by fitting the Curve using XLfit (v5.3.1.3), equation 201: Y=Bottom+(Top−Bottom)/(1+10^((LogIC50−X)*HillSlope)).
On the technique in general: Bead proximity is the source of the signal in Alpha formats.

The target in assay [2] is phosphorylated ERBB2 (pERBB2) (Homo sapiens (Human), UniProt P04626). As to the kind of experiment: Detection of phosphorylated ERBB2 (pERBB2) by ELISA in BT-474 cells. The format is cell-based. To be noted: four hours incubation with compound. The method, then:
BT-474 cells were seeded into a 96-well at 2.0*10^4cells/100 μl/well. Compounds were dissolved and serially diluted in DMSO. The compounds were then were added, mixed, and incubated for four hours at 37° C., 5% CO2. […] Following the four hour incubation with compounds, cell lysates were prepared. Plates were centrifuged for 5 min at 3000 RPM, and supernatant was removed from each well. Cells were washed 3 times by resuspension in 150 μl PBS, followed by centrifugation and removal of the supernatant, as above. 100 μl of cell lysis buffer (Boston BioProducts, cat #BP-115D) supplied with 1×complete ULTRA cocktail inhibitor (Thermo ScientificTM, cat #78443) was then added to the washed cells. Cells were incubated with lysis buffer for 1 hour at 4° C., and then stored at -80° C. Enzyme-linked immunosorbent assays (ELISA) were performed to measure phosphorylated ERBB2 levels. […] The next day, plates were washed with PBS+0.05% Tween20 (PBST). 150 μl of 5% BSA blocking solution was added for 1 hour at room temperature, with shaking. Plates were washed with PBST. Cell lysates were thawed and 100 μl of lysate was added to the ELISA plate. The plates were incubated for 2 hours at room temperature, with shaking. ELISA plates were then washed with PBST and 100 μl of an HRP-labeled detection antibody that binds phosphorylated tyrosine (R&D Systems, cat #841913) was added to each well. Plates were incubated for 1 hour at room temperature, with shaking. Plates were then washed with PBST, and 100 μl TMB substrate solution (R&D Systems, cat #DY999) was added. Plate were incubated in the dark for 20 minutes at room temperature. 50 μl of Stop solution (R&D Systems, cat #DY994) (50 μl) was added to each well and mixed. […] The remaining kinase activity by calculated using the following formula: % Relative activity=100×([…]). The low and high control values (“LC” and “HC”) were generated from lysate from wells without cells or with cells treated with 0.1% DMSO, respectively.
On the technique in general: An ELISA detects its analyte on a solid surface through an enzyme-linked reagent.

phosphorylated EGFR (pEGFR), sequence (P00533 25-1210): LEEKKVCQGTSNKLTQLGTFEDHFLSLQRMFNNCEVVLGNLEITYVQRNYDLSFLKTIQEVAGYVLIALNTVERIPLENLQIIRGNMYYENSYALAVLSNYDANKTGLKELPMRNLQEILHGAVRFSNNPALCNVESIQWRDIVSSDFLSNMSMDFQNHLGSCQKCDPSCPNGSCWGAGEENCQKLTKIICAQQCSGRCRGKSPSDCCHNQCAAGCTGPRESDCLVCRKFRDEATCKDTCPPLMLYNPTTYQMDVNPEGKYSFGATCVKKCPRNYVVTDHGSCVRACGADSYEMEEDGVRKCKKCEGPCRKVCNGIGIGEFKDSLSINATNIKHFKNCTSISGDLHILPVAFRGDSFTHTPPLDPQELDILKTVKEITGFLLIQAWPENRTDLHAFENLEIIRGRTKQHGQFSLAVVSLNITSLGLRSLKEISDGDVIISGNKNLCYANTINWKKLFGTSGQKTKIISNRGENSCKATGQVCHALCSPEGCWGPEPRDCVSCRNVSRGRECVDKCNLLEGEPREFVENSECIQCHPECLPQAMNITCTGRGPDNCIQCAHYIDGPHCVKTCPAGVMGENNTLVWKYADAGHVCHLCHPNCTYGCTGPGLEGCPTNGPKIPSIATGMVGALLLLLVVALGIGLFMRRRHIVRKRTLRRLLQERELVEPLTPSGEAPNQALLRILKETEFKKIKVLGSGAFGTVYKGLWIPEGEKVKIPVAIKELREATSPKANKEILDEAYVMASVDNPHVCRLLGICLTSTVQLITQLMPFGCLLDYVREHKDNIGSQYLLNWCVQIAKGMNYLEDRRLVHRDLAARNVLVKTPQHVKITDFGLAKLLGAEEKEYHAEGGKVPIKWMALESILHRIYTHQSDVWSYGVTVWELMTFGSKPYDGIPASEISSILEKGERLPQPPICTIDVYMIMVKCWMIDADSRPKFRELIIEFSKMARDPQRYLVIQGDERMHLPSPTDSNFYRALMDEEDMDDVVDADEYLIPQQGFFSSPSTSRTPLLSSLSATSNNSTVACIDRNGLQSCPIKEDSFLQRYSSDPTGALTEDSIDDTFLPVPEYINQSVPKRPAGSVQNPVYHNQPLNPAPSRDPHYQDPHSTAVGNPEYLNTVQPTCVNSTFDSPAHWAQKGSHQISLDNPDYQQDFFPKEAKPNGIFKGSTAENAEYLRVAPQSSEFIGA
phosphorylated ERBB2 (pERBB2), sequence (P04626 23-1255): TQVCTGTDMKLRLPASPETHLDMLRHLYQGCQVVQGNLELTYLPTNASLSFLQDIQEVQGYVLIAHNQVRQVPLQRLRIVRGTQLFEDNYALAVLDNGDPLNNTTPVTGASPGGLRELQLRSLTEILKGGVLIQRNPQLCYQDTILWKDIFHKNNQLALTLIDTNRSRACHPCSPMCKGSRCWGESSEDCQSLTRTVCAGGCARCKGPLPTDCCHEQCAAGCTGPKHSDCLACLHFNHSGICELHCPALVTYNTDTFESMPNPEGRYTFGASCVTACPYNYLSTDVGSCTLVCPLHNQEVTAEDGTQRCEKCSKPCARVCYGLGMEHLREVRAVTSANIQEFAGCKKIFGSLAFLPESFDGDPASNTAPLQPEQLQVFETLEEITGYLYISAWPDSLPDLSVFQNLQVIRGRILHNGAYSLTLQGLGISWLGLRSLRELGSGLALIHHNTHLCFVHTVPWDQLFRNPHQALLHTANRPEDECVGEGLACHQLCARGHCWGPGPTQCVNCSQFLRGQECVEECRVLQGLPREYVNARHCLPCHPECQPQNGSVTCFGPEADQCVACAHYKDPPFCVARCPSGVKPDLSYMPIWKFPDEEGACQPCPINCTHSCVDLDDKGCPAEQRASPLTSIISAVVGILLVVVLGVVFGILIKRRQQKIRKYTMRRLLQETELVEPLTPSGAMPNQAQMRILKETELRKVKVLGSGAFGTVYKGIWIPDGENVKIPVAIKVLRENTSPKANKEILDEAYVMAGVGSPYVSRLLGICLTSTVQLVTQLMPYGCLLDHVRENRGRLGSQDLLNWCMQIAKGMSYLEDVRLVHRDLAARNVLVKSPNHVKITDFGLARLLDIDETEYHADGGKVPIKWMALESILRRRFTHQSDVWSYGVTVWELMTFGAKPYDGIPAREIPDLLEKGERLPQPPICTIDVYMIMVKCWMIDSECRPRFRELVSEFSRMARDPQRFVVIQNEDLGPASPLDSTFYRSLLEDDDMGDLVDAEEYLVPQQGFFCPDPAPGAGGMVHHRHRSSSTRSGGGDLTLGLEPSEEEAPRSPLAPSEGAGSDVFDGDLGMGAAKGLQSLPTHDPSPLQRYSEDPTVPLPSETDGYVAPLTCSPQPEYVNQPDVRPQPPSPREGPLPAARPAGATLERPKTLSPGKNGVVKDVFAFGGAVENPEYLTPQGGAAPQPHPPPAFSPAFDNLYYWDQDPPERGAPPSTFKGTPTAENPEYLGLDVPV

In the case of `CN(C)C/C=C/C(=O)N1CCN2CC1COc1cc3ncnc(Nc4ccc(Oc5ccn6ncnc6c5)cc4F)c3nc12` (stereo in doubt) [Compound 42, (E)-1-((10S)-4-((4-([1,2,4]triazolo[1,5-a]pyridin-7-yloxy)-2-fluorophenyl)amino)-7,8,10,11-tetrahydro-9H-6,10-methanopyrimido[4′,5′:5,6]pyrido[3,2-b][1,4,7]oxadiazonin-9-yl)-4-(dimethylamino)but-2-en-1-one], the results for the IC50 in assay [1] and in assay [2] were 1940 nM and 10.8 nM, respectively.

With `CC#CC(=O)N1CCN2CC1COc1cc3ncnc(Nc4ccc(Oc5ccn6ncnc6c5)c(C)c4)c3nc12` (stereo in doubt) [Compound 18, 1-((10S)-4-((4-([1,2,4]triazolo[1,5-a]pyridin-7-yloxy)-3-methylphenyl)amino)-7,8,10,11-tetrahydro-9H-6,10-methanopyrimido[4′,5′:5,6]pyrido[3,2-b][1,4,7]oxadiazonin-9-yl)but-2-yn-1-one], the IC50 – broadly, the point on the concentration scale where inhibition reaches its midpoint – in assay [1] amounted to 4430 nM; in assay [2] it was 62.8 nM.

As to `Cc1cc(Nc2ncnc3cc4c(nc23)N2CCN(C(=O)/C=C/[C@H]3CCCN3C)C(CO4)C2)ccc1Oc1ccn2ncnc2c1` (stereo in doubt) [Compound 27, (E)-1-((10S)-4-((4-([1,2,4]triazolo[1,5-a]pyridin-7-yloxy)-3-methylphenyl)amino)-7,8,10,11-tetrahydro-9H-6,10-methanopyrimido[4′,5′:5,6]pyrido[3,2-b][1,4,7]oxadiazonin-9-yl)-3-((R)-1-methylpyrrolidin-2-yl)prop-2-en-1-one], the IC50 in assay [1] came to 5260 nM; in assay [2] it was 14.4 nM.

For the molecule `Cc1cc(Nc2ncnc3cc4c(nc23)N2CCN(C(=O)/C=C/CN(C)C)C(CO4)C2)ccc1Oc1ccc2c(c1)ncn2C` (stereo in doubt) [Compound 6, (E)-4-(dimethylamino)-1-((10S)-4-((3-methyl-4-((1-methyl-1H-benzo[d]imidazol-5-yl)oxy)phenyl)amino)-7,8,10,11-tetrahydro-9H-6,10-methanopyrimido[4′,5′:5,6]pyrido[3,2-b][1,4,7]oxadiazonin-9-yl)but-2-en-1-one], the IC50 was 2190 nM in assay [1] and 34.2 nM in assay [2].

Regarding `Cc1cc(Nc2ncnc3cc4c(nc23)N2CCN(C(=O)/C=C/[C@@H](C)N(C)C)C(CO4)C2)ccc1Oc1ccn2ncnc2c1` (stereo in doubt) [Compound 29, (4R,E)-1-((10S)-4-((4-([1,2,4]triazolo[1,5-a]pyridin-7-yloxy)-3-methylphenyl)amino)-7,8,10,11-tetrahydro-9H-6,10-methanopyrimido[4′,5′:5,6]pyrido[3,2-b][1,4,7]oxadiazonin-9-yl)-4-(dimethylamino)pent-2-en-1-one], the IC50 in assay [1] was above 10000 nM; in assay [2] it was 16.8 nM.

Take `CN(C)C/C=C/C(=O)N1CCN2CC1COc1cc3ncnc(Nc4cc(Cl)c(Oc5ccn6ncnc6c5)cc4F)c3nc12` (stereo in doubt) [Compound 43, (E)-1-((10S)-4-((4-([1,2,4]triazolo[1,5-a]pyridin-7-yloxy)-5-chloro-2-fluorophenyl)amino)-7,8,10,11-tetrahydro-9H-6,10-methanopyrimido[4′,5′:5,6]pyrido[3,2-b][1,4,7]oxadiazonin-9-yl)-4-(dimethylamino)but-2-en-1-one]: the IC50 turned out to be 1400 nM in assay [1] and 8.69 nM in assay [2].

Take `CNC/C=C/C(=O)N1CCN2CC1COc1cc3ncnc(Nc4cc(C)c(Oc5ccn6ncnc6c5)cc4F)c3nc12` (stereo in doubt) [Compound 49, (E)-1-((10S)-4-((4-([1,2,4]triazolo[1,5-a]pyridin-7-yloxy)-2-fluoro-5-methylphenyl)amino)-7,8,10,11-tetrahydro-9H-6,10-methanopyrimido[4′,5′:5,6]pyrido[3,2-b][1,4,7]oxadiazonin-9-yl)-4-(methylamino)but-2-en-1-one]: the IC50 amounted to 2650 nM in assay [1] and 31.5 nM in assay [2].

In the case of `CN(C)C/C=C/C(=O)N1CCN2CC1COc1cc3ncnc(Nc4ccc(Oc5ccn6ncnc6c5)cc4)c3nc12` (stereo in doubt) [Compound 31, (E)-1-((10S)-4-((4-([1,2,4]triazolo[1,5-a]pyridin-7-yloxy)phenyl)amino)-7,8,10,11-tetrahydro-9H-6,10-methanopyrimido[4′,5′:5,6]pyrido[3,2-b][1,4,7]oxadiazonin-9-yl)-4-(dimethylamino)but-2-en-1-one], the IC50 in assay [1] was above 10000 nM; in assay [2], 18.5 nM.

Take `Cc1ccc(Oc2ccc(Nc3ncnc4cc5c(nc34)N3CCN(C(=O)/C=C/CN(C)C)C(CO5)C3)cc2C)cn1` (stereo in doubt) [Compound 21, (E)-4-(dimethylamino)-1-((10S)-4-((3-methyl-4-((6-methylpyridin-3-yl)oxy)phenyl)amino)-7,8,10,11-tetrahydro-9H-6,10-methanopyrimido[4′,5′:5,6]pyrido[3,2-b][1,4,7]oxadiazonin-9-yl)but-2-en-1-one]: the IC50 in assay [1] came out at 621 nM; in assay [2], 25 nM.

For `Cc1cc(Nc2ncnc3cc4c(nc23)N2CCN(C(=O)/C=C/CN(C)C)C(CO4)C2)ccc1Oc1cncc(F)c1` (stereo in doubt) [Compound 51, (E)-4-(dimethylamino)-1-((10S)-4-((4-((5-fluoropyridin-3-yl)oxy)-3-methylphenyl)amino)-7,8,10,11-tetrahydro-9H-6,10-methanopyrimido[4′,5′:5,6]pyrido[3,2-b][1,4,7]oxadiazonin-9-yl)but-2-en-1-one], the IC50 in assay [1] was found to be 177 nM; in assay [2] it was 8.84 nM.

On to `Cc1cc(Nc2ncnc3cc4c(nc23)N2CCN(C(=O)/C=C/[C@H]3CCCN3C)C(CO4)C2)c(F)cc1Oc1ccn2ncnc2c1` (stereo in doubt) [Compound 41, (E)-1-((10S)-4-((4-([1,2,4]triazolo[1,5-a]pyridin-7-yloxy)-2-fluoro-5-methylphenyl)amino)-7,8,10,11-tetrahydro-9H-6,10-methanopyrimido[4′,5′:5,6]pyrido[3,2-b][1,4,7]oxadiazonin-9-yl)-3-((R)-1-methylpyrrolidin-2-yl)prop-2-en-1-one], for which the IC50 in assay [1] worked out at 7300 nM; in assay [2], 24.5 nM.

`Cc1cc(Nc2ncnc3cc4c(nc23)N2CCN(C(=O)/C=C/CN(C)C)C(CO4)C2)ccc1Oc1ccn2ncnc2c1` (stereo in doubt) [Compound 15, (E)-1-((10R)-4-((4-([1,2,4]triazolo[1,5-a]pyridin-7-yloxy)-3-methylphenyl)amino)-7,8,10,11-tetrahydro-9H-6,10-methanopyrimido[4′,5′:5,6]pyrido[3,2-b][1,4,7]oxadiazonin-9-yl)-4-(dimethylamino)but-2-en-1-one]: the IC50 in assay [1] was above 10000 nM; in assay [2] it was 343 nM.

Take `Cc1cc(Nc2ncnc3cc4c(nc23)N2CCN(C(=O)/C=C/CN(C)C)C(CO4)C2)ccc1Oc1cccnc1` (stereo in doubt) [Compound 25, (E)-4-(dimethylamino)-1-((10S)-4-((3-methyl-4-(pyridin-3-yloxy)phenyl)amino)-7,8,10,11-tetrahydro-9H-6,10-methanopyrimido[4′,5′:5,6]pyrido[3,2-b][1,4,7]oxadiazonin-9-yl)but-2-en-1-one]: the figures for the IC50 in assay [1] and in assay [2] were 338 nM and 5.54 nM, respectively.
